Reference: ChEMBL document CHEMBL4304809 (ACS Med Chem Lett, 2019)
≈ marks a conversion by molar mass, not a printed value. Calls of active or inactive are those of the source. The rule behind the calls is not given here.

Key:
[1] = Lipophilicity, log D of the compound at pH 7.4; format: physicochemical; details: buffer
[2] = molecular target: Mitogen-activated protein kinase kinase kinase 14 (Homo sapiens, UniProt Q99558); assay: Inhibition of NIK (unknown origin) using ATP as substrate by transcreener ADP assay based fluorescence correlation spectroscopic analysis; format: single protein
[3] = molecular target: Aurora kinase B (Homo sapiens) (UniProt Q96GD4); assay: Inhibition of full length His-tagged recombinant human AURKB expressed in Baculovirus expression system at 0.1 uM using Fluorescein-PKC as substrate incubated for 1 hr by TR-FRET assay relative to control
[4] = Kinetic solubility of the compound; format: physicochemical; details: read-out: Kinetic_solubility
[5] = molecular target: T1, Serine/threonine-protein kinase D1 (Homo sapiens, UniProt Q15139); assay: Inhibition of full length GST-tagged human PRKD1 expressed in Baculovirus expression system using ATP as substrate incubated for 1 to 2 hrs by transcreener ADP assay based fluorescence correlation spectroscopic analysis
T1 sequence (Q15139 whole entry): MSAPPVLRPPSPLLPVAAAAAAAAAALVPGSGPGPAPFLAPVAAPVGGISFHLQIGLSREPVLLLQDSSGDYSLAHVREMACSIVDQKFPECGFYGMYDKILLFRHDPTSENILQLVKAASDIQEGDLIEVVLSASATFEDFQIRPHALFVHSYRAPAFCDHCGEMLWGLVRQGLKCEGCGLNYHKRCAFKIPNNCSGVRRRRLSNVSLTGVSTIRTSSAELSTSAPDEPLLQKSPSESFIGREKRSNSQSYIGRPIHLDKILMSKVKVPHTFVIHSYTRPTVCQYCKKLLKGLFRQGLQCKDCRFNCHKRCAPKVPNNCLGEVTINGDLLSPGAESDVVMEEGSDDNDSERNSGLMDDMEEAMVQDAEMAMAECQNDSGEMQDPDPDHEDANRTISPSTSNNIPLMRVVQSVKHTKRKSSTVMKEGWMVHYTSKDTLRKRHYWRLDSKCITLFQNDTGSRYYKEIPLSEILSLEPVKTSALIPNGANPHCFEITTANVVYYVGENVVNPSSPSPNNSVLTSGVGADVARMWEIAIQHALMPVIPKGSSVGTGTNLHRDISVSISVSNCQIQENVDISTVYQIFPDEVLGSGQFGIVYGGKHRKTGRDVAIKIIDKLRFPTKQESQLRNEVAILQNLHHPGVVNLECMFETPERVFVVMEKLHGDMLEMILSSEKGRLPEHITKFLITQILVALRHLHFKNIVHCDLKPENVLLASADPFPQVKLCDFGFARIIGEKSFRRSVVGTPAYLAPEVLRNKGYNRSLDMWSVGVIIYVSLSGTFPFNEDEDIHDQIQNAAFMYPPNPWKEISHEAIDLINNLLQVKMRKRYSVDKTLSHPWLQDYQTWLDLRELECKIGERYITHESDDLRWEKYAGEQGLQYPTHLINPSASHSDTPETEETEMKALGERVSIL

[6] = molecular target: Misshapen-like kinase 1 (Homo sapiens) (UniProt Q8N4C8); assay: Inhibition of recombinant GST-tagged human MINK1 catalytic domain (1 to 320 residues) expressed in Baculovirus expression system at 0.1 uM using Fluorescein-PKC as substrate incubated for 1 hr by TR-FRET assay relative to control
[7] = molecular target: Mitogen-activated protein kinase kinase kinase kinase 4 (Homo sapiens) (UniProt O95819); assay: Inhibition of recombinant GST-tagged human MAP4K4 catalytic domain (1 to 328 residues) expressed in Baculovirus expression system at 0.1 uM using Fluorescein-PKC as substrate incubated for 1 hr by TR-FRET assay relative to control
[8] = molecular target: T2, Serine/threonine-protein kinase D1 (Homo sapiens) (UniProt Q15139); assay: Inhibition of full length GST-tagged recombinant human PRKD1 expressed in Baculovirus expression system at 0.1 uM using Fluorescein-CREBtide as substrate incubated for 1 hr by TR-FRET assay relative to control
T2 sequence (whole entry): T1 sequence (Q15139 whole entry)

[9] = molecular target: Serine/threonine-protein kinase PAK 4 (Homo sapiens) (UniProt O96013); assay: Inhibition of recombinant GST-tagged human PAK4 catalytic domain (295 to 591 residues) expressed in Baculovirus expression system at 0.1 uM using Fluorescein-Crosstide as substrate incubated for 1 hr by TR-FRET assay relative to control
[10] = molecular target: Tyrosine-protein kinase JAK1 (Homo sapiens) (UniProt P23458); assay: Inhibition of recombinant GST-tagged human JAK1 catalytic domain (866 to 1154 residues) expressed in Baculovirus expression system at 0.1 uM using GFP-STAT1 as substrate incubated for 1 hr by TR-FRET assay relative to control
[11] = molecular target: RAC-alpha serine/threonine-protein kinase (Homo sapiens) (UniProt P31749); assay: Inhibition of full length His-tagged recombinant human AKT1 expressed in Baculovirus expression system at 0.1 uM using Fluorescein-Crosstide as substrate incubated for 1 hr by TR-FRET assay relative to control

Mitogen-activated protein kinase kinase kinase 14, sequence (Q99558 whole entry): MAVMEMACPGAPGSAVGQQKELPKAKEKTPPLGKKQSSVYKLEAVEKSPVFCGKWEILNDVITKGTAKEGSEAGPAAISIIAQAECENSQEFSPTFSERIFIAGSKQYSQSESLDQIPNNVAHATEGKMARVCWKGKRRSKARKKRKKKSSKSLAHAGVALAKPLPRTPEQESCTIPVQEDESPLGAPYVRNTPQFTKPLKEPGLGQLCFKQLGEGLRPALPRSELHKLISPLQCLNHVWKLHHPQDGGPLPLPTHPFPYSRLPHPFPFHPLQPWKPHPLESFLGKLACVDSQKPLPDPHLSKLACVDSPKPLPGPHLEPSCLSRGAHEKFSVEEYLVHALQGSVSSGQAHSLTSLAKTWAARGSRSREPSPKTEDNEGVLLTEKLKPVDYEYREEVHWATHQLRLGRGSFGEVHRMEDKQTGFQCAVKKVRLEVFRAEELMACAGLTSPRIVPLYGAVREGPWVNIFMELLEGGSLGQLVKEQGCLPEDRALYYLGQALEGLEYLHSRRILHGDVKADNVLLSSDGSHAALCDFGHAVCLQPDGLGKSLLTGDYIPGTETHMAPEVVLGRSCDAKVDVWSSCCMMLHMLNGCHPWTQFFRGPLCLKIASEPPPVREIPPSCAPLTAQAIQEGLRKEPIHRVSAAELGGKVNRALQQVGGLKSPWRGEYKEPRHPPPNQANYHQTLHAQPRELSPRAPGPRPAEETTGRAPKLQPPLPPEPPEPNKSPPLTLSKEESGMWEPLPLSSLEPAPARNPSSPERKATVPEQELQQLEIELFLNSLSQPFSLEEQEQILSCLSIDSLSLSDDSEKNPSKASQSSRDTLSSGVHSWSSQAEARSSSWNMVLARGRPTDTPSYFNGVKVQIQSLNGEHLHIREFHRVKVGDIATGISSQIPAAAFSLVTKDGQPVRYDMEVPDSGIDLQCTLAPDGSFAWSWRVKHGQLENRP
Aurora kinase B (Homo sapiens), sequence (Q96GD4 whole entry): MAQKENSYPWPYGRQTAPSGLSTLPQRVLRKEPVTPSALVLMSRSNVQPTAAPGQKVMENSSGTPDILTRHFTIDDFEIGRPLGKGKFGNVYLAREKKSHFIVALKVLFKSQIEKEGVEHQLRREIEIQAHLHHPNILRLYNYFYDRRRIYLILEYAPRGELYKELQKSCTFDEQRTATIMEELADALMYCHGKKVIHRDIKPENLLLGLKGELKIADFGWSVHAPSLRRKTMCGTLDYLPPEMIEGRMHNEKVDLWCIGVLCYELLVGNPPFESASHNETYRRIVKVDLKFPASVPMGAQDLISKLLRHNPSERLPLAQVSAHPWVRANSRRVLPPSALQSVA
Misshapen-like kinase 1 (Homo sapiens), sequence (Q8N4C8 whole entry, looked up, the tested form may be a part): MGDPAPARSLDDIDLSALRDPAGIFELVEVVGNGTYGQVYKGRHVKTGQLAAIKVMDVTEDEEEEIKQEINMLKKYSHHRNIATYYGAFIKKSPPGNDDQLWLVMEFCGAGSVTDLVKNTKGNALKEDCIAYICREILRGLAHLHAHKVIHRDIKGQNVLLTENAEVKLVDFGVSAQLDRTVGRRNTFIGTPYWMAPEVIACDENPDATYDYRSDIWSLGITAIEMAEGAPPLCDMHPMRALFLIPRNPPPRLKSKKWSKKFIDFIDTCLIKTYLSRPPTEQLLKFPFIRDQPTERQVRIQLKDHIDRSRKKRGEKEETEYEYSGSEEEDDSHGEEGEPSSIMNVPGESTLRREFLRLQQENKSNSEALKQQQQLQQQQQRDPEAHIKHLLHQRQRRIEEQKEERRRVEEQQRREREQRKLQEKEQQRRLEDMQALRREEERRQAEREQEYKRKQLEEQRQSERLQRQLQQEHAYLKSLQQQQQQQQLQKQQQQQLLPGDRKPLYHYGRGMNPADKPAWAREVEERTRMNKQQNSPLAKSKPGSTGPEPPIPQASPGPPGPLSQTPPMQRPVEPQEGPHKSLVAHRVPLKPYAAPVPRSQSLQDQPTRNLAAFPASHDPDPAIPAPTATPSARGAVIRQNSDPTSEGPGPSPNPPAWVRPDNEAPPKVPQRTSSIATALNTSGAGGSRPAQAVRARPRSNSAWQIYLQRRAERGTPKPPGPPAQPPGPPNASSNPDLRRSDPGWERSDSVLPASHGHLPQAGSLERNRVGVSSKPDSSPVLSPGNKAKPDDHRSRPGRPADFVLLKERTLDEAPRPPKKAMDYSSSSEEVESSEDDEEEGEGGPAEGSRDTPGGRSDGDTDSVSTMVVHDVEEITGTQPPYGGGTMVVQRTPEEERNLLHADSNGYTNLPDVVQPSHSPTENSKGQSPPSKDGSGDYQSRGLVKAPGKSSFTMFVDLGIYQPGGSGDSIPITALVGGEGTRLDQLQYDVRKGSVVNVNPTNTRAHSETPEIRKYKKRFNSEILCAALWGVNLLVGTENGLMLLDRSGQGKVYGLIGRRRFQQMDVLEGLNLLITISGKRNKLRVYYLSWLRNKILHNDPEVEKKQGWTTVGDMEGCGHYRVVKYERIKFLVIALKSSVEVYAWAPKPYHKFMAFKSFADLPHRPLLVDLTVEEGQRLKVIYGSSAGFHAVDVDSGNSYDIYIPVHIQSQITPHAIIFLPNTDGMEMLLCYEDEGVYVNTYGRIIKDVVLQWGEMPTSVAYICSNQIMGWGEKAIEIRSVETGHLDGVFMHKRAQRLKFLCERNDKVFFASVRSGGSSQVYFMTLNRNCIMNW
Mitogen-activated protein kinase kinase kinase kinase 4 (Homo sapiens), sequence (O95819 2-1239 limits assumed): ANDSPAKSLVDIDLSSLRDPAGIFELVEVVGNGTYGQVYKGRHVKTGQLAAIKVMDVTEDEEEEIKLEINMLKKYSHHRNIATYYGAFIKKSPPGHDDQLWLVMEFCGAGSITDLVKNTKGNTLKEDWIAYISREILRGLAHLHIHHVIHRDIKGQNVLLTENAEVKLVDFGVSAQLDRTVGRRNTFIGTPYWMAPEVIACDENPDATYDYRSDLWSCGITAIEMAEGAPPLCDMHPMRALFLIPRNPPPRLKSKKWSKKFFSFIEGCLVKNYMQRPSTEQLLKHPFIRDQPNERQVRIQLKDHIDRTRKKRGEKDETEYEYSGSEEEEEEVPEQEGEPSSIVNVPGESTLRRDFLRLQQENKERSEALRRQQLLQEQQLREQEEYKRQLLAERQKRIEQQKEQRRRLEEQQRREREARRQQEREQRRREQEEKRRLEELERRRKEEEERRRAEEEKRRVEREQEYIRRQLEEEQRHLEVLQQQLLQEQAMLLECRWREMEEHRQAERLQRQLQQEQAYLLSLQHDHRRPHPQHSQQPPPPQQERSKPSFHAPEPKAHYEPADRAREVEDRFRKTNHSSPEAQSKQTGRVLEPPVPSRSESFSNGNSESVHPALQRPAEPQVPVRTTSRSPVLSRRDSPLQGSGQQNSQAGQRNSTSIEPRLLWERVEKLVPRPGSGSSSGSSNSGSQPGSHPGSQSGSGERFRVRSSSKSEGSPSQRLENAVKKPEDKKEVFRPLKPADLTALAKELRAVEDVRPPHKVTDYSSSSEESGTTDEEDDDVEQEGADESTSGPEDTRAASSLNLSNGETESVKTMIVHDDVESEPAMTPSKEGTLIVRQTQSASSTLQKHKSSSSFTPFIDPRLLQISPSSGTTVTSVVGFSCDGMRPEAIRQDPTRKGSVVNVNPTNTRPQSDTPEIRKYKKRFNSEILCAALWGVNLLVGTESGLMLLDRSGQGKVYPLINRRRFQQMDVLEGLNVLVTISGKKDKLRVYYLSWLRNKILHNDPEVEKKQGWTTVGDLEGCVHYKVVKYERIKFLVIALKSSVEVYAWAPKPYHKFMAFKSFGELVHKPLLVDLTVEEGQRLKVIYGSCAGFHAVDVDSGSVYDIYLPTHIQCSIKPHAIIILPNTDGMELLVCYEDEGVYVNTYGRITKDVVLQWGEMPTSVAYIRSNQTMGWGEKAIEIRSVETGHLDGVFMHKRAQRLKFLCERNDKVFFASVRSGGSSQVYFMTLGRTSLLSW
Tyrosine-protein kinase JAK1 (Homo sapiens), sequence (P23458 whole entry, the tested form may be a part): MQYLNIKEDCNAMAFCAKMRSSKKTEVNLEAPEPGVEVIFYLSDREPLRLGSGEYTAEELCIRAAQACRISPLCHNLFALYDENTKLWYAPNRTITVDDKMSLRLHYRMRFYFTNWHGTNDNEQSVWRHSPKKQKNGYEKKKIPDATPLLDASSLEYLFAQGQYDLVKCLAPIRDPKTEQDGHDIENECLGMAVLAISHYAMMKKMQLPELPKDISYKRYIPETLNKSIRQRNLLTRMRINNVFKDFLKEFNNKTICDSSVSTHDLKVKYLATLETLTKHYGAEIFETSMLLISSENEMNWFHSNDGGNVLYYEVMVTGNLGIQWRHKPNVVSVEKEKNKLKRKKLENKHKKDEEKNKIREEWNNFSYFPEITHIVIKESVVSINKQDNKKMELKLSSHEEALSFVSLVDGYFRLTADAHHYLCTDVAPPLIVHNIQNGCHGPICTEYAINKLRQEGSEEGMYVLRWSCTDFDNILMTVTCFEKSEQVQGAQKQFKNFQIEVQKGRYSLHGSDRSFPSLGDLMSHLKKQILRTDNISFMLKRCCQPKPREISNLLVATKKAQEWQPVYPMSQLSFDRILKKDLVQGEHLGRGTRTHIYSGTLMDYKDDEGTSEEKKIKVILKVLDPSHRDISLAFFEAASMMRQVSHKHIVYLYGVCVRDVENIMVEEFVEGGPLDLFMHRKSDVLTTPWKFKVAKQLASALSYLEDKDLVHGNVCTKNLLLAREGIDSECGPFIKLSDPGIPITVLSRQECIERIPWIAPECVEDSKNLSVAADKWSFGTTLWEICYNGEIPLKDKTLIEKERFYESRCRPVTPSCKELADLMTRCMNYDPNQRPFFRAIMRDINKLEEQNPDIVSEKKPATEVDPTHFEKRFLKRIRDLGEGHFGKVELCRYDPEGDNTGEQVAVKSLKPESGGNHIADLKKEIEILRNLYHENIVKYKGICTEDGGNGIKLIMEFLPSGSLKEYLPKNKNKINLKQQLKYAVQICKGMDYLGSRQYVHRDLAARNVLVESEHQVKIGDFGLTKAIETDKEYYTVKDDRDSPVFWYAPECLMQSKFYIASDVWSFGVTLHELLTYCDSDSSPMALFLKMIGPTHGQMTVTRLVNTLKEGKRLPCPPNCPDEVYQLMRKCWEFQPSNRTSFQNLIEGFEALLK

| Ki [2] | Ki [5] | Compound | also measured |
| --- | --- | --- | --- |
| > 1250 nM | < 0.2 nM | Cc1cnc(C(C)(C)C#Cc2ccc3c(c2)-c2nc(C(N)=O)c(C4CC4)n2C2CC3C2)o1 | logD [1]: 4.4; inhibition [3]: > 40%; solubility kinetic [4]: 35 µM (≈ 14.9 µg/mL) |
| 582 nM | 65 nM | Cc1cc([C@@](C)(O)C#Cc2ccc3c(c2)-c2nc(C(N)=O)cn2C2CC3C2)no1 |  |
| 0.16 nM | 3.6 nM | CCOc1nc2ccc(C#C[C@@](C)(O)c3ncc(C)o3)cc2n1-c1ccnc(N)n1 |  |
| 3.1 nM | 4.9 nM | Cc1cc([C@](C)(O)C#Cc2ccc3c(c2)-c2nc(C(N)=O)cn2CCO3)no1 |  |
| 1 nM | 5.9 nM | Cc1cc([C@](C)(O)C#Cc2cc3c(cc2F)C2CC(C2)n2cc(C(N)=O)nc2-3)no1 |  |
| > 1250 nM | 44 nM | NC(=O)c1cn2c(n1)-c1cc(C#CC3CCCC3)ccc1C1CC2C1 |  |
|  | 4.2 nM | Cc1cnc([C@@](C)(O)C#Cc2ccc3c(c2)-c2nc(C(N)=O)cn2C2CC3C2)o1 |  |
| > 250 nM | 14 nM | Cc1cc([C@@](C)(O)C#Cc2ccc3c(c2)-c2nc(C(N)=O)cn2CCO3)no1 |  |
| > 1250 nM | < 0.2 nM | CNC(=O)c1c(C(N)=O)nc2n1C1CC(C1)c1ccc(C#CC(C)(C)c3ncc(C)o3)cc1-2 | logD [1]: 3.7; inhibition [6]: 51%; inhibition [3]: 45%; solubility kinetic [4]: 13 µM (≈ 5.77 µg/mL); inhibition [7]: 57%; inhibition [8]: Active |
| 0.8 nM | 0.9 nM | Cc1cc([C@](C)(O)C#Cc2ccc3c(c2)-c2nc(C(N)=O)cn2C2CC3C2)no1 |  |
| ≥ 1250 nM | < 0.2 nM | Cc1cc([C@@](C)(O)C#Cc2ccc3c(c2)-c2nc(C(N)=O)c(C4CC4)n2CCO3)no1 | logD [1]: 2; inhibition [6]: 20%; solubility kinetic [4]: 124 µM (≈ 51.9 µg/mL); inhibition [9]: 7%; inhibition [7]: 21%; inhibition [10]: 1%; inhibition [8]: > 30%; inhibition [11]: 4% |
| 14 nM |  | CNC(=O)c1c(C(N)=O)nc2n1C1CC(C1)c1cc(F)c(C#C[C@@](C)(O)c3cc(C)on3)cc1-2 |  |
| 10 nM | 25 nM | NC(=O)c1cn2c(n1)-c1cc(C#CC3(O)CCCC3)ccc1C1CC2C1 |  |
|  | < 0.2 nM | Cc1cnc([C@](C)(O)C#Cc2ccc3c(c2)-c2nc(C(N)=O)cn2C2CC3C2)o1 |  |
|  | < 0.2 nM | Cc1cc([C@](C)(O)C#Cc2cc3c(cc2F)C2CC(C2)n2c-3nc(C(N)=O)c2C2CC2)no1 | logD [1]: 3.7 |
| 634 nM | 62 nM | CCOc1nc2ccc(C#C[C@](C)(O)c3ncc(C)o3)cc2n1-c1ccnc(N)n1 |  |
